# Measured values published in patent US9278922B2 (ABBVIE INC., priority 2009, dated 2016).
# System: HCV 1b-Con-1 replicon
# Test: HCV 1b-Con-1 replicon assay (luciferase reporter gene, HuH-7 cells)
# Type: cell-based, Hepatitis C virus (HCV) genotype 1b-Con1
# Settings: Hepatitis C virus, Huh-7, luciferase reporter gene activity in the replicon, in the presence of 5% FBS
row,Compound,EC50
1,COC(=O)N[C@@H](C)C(=O)N1CCC[C@H]1C(=O)Nc1ccc(CN(Cc2ccc(NC(=O)[C@@H]3CCCN3C(=O)[C@H](C)NC(=O)OC)cc2)c2ccc(F)cc2)cc1 [Example 15],1 to 10 nM
2,"O=C(Nc1ccc(CN(Cc2ccc(NC(=O)[C@@H]3CCCN3C(=O)[C@@H](c3ccccc3)N3CCCC3)cc2)c2ccc(F)cc2)cc1)[C@@H]1CCCN1C(=O)[C@@H](c1ccccc1)N1CCCC1 [Example 85, (2S,2′S)-N,N′-{[(4-fluorophenyl)imino]bis(methanediylbenzene-4,1-diyl)}bis{1-[(2R)-2-phenyl-2-pyrrolidin-1-ylacetyl]pyrrolidine-2-carboxamide}]",< 1 nM
3,"COCCN(Cc1ccc(NC(=O)[C@@H]2CCCN2C(=O)[C@@H](NC(=O)OC)C(C)(C)C)cc1)Cc1ccc(NC(=O)[C@@H]2CCCN2C(=O)[C@@H](NC(=O)OC)C(C)(C)C)cc1 [Example 32, dimethyl ([(2-methoxyethyl)imino]bis{methanediylbenzene-4,1-diylcarbamoyl(2S)pyrrolidine-2,1-diyl[(2S)-3,3-dimethyl-1-oxobutane-1,2-diyl]})biscarbamate]",100 to 250 nM
4,"COC(=O)N[C@H](C(=O)N1CCC[C@H]1C(=O)Nc1ccc(CN(Cc2ccc(NC(=O)[C@@H]3CCCN3C(=O)[C@@H](NC(=O)OC)C(C)(C)C)cc2)c2ccccc2)cc1)[C@H]1CCOC1 [Example 53, N-(methoxycarbonyl)-3-methyl-L-valyl-N-(4-{[{4-[(1-{(2S)-2-[(methoxycarbonyl)amino]-2-[(3R)-tetrahydrofuran-3-yl]acetyl}-L-prolyl)amino]benzyl}(phenyl)amino]methyl}phenyl)-L-prolinamide]",< 1 nM
5,"COC(=O)N[C@H](C(=O)N1CCC[C@H]1c1nc2ccc(CN(Cc3ccc4nc([C@@H]5CCCN5C(=O)[C@@H](NC(=O)OC)[C@@H](C)O)[nH]c4c3)c3ccccc3)cc2[nH]1)[C@@H](C)O [Example 35, methyl [(1S,2R)-2-hydroxy-1-{[(2S)-2-(6-{[({2-[(2S)-1-{(2S,3R)-3-hydroxy-2-[(methoxycarbonyl)amino]butanoyl}pyrrolidin-2-yl]-1H-benzimidazol-6-yl}methyl)(phenyl)amino]methyl}-1H-benzimidazol-2-yl)pyrrolidin-1-yl]carbonyl}propyl]carbamate]",< 1 nM
6,"COC(=O)N[C@H](C(=O)N1CCC[C@H]1C(=O)Nc1ccc(CN(Cc2ccc(NC(=O)[C@@H]3CCCN3C(=O)[C@@H](NC(=O)OC)C(C)(C)C)cc2)c2ccon2)cc1)C(C)(C)C [Example 33, dimethyl[(isoxazol-3-ylimino)bis{methanediylbenzene-4,1-diylcarbamoyl(2S)pyrrolidine-2,1-diyl[(2S)-3,3-dimethyl-1-oxobutane-1,2-diyl]}]biscarbamate]",1 to 10 nM
7,"COC(=O)N[C@H](C(=O)N1CCC[C@H]1C(=O)Nc1ccc(CN(Cc2ccc(NC(=O)[C@@H]3CCCN3C(=O)[C@@H](c3ccccc3)N(C)C)cc2)c2ccccc2)cc1)C(C)(C)C [Example 10, Methyl (S)-1-((S)-2-(4-(((4-((S)-1-((R)-2-(dimethylamino)-2-phenylacetyl)pyrrolidine-2-carboxamido)benzyl)(phenyl)amino)methyl)phenylcarbamoyl)pyrrolidin-1-yl)-3,3-dimethyl-1-oxobutan-2-ylcarbamate]",< 1 nM
8,COC(=O)N[C@H](C(=O)N1CC[C@H](O)[C@H]1C(=O)Nc1ccc(CN(Cc2ccc(NC(=O)[C@@H]3[C@@H](O)CCN3C(=O)[C@@H](NC(=O)OC)C(C)(C)C)cc2)c2ccc(F)cc2)cc1)C(C)(C)C [Example 141],10 to 100 nM
9,"COC(=O)N[C@@H](Cc1ccccc1)C(=O)N1CCC[C@H]1C(=O)Nc1ccc(CN(Cc2ccc(NC(=O)[C@@H]3CCCN3C(=O)[C@H](Cc3ccccc3)NC(=O)OC)cc2)c2ccccc2)cc1 [Example 61, dimethyl [(phenylimino)bis{methanediylbenzene-4,1-diylcarbamoyl(2S)pyrrolidine-2,1-diyl[(2S)-1-oxo-3-phenylpropane-1,2-diyl]}]biscarbamate]",1 to 10 nM
10,"CC(C)[C@@H](C(=O)N1CCC[C@H]1C(=O)Nc1ccc(CN(Cc2ccc(NC(=O)[C@@H]3CCCN3C(=O)[C@H](C(C)C)N3CCCNC3=O)cc2)c2ccccc2)cc1)N1CCCNC1=O [Example 36, (2S,2′S)-N,N′-[(phenylimino)bis(methanediylbenzene-4,1-diyl)]bis {1-[(2S)-3-methyl-2-(2-oxotetrahydropyrimidin-1(2H)-yl)butanoyl]pyrrolidine-2-carboxamide}]",1 to 10 nM
11,"COC(=O)N[C@H](C(=O)N1CCC[C@H]1C(=O)Nc1ccc(CN(Cc2ccc(NC(=O)[C@@H]3CCCN3C(=O)[C@@H](NC(=O)OC)C(C)(C)C)cc2)c2ccc(F)c(F)c2)cc1)C(C)(C)C [Example 90, dimethyl ([(3,4-difluorophenyl)imino]bis{methanediylbenzene-4,1-diylcarbamoyl(2S)pyrrolidine-2,1-diyl[(2S)-3,3-dimethyl-1-oxobutane-1,2-diyl]})biscarbamate]",< 1 nM
12,"COC(=O)N[C@H](C(=O)N1CCC[C@H]1C(=O)Nc1ccc(CN(Cc2ccc(NC(=O)[C@@H]3CCCN3C(=O)[C@@H](NC(=O)OC)[C@H]3CCOC3)cc2)c2ccc(F)cc2)cc1)[C@H]1CCOC1 [Example 86, dimethyl {[(4-fluorophenyl)imino]bis[methanediylbenzene-4,1-diylcarbamoyl(2 S)pyrrolidine-2,1-diyl{(1S)-2-oxo-1-[(3R)-tetrahydrofuran-3-yl]ethane-2,1-diyl}]}biscarbamate]",< 1 nM
13,"COC(=O)N[C@H](C(=O)N1CCC[C@H]1C(=O)Nc1ccc(CN(Cc2ccc(NC(=O)[C@@H]3CCCN3C(=O)[C@@H](NC(=O)OC)C(C)C)cc2)C(C)C)cc1)C(C)C [Example 24, dimethyl ([(1-methylethyl)imino]bis{methanediylbenzene-4,1-diylcarbamoyl(2S)pyrrolidine-2,1-diyl[(2S)-3-methyl-1-oxobutane-1,2-diyl]})biscarbamate]",1 to 10 nM
14,COC(=O)N[C@H](C(=O)N1CCC[C@H]1C(=O)Nc1ccc(CN(Cc2ccc(NC(=O)[C@@H]3CCCN3C(=O)[C@H](NC(=O)OC)c3ccccc3)cc2)c2ccccc2)cc1)[C@H]1CCOC1 [Example 72],< 1 nM
15,COC(=O)N[C@H](C)C(=O)N1CCC[C@H]1C(=O)Nc1ccc(CN(Cc2ccc(NC(=O)[C@@H]3CCCN3C(=O)[C@@H](C)NC(=O)OC)cc2)c2ccc(F)cc2)cc1 [Example 16],10 to 100 nM
16,"CC[C@H](NC(=O)OC)C(=O)N1CCC[C@H]1C(=O)Nc1ccc(CN(Cc2ccc(NC(=O)[C@@H]3CCCN3C(=O)[C@@H](NC(=O)OC)C(C)(C)C)cc2)c2ccccc2)cc1 [Example 62, N-(methoxycarbonyl)-3-methyl-L-valyl-N-(4-{[{4-[(1-{(2S)-2-[(methoxycarbonyl)amino]butanoyl}-L-prolyl)amino]benzyl}(phenyl)amino]methyl}phenyl)-L-prolinamide]",1 to 10 nM
